Test results taken from the NIST ThermoML archive (doi:10.1016/j.tca.2008.10.020).
± gives the expanded uncertainty stated by the source.

Tests used:
[1] = Crystal 2; DTA
[2] = Molar enthalpy of transition or fusion; settings: Crystal 2; DSC

With [Cl][Pt][Cl] [platinous chloride] as the compound, how does the Triple point temperature [1] read?
The Triple point temperature was 660 ± 10 K.

And the “Molar enthalpy of transition or fusion” value [2]?
The value was 0.0399 ± 0.0227 kcal/mol.
